Laboratory results published in ChEMBL document CHEMBL6092142, “Discovery and preclinical profile of YK-2168, a differentiated selective CDK9 inhibitor in clinical development” (Bioorg Med Chem Lett, 2024).
Converted amounts (≈) assume the structure as drawn. The source made the active and inactive calls. No cut-off for these calls is given here.

Tests used:
[1] = Selectivity index, ratio of IC50 for inhibition of CDK2 (unknown origin) to IC50 for inhibition of CDK9 (unknown origin)
[2] = tested on: MV4-11; experiment: Antiproliferative activity against human MV4-11 cells assessed as cell viability; type: functional, cell-based
[3] = Selectivity index, ratio of IC50 for inhibition of CDK1 (unknown origin) to IC50 for inhibition of CDK9 (unknown origin)
[4] = Metabolic stability in monkey hepatocytes assessed as half life; type: ADME, cell-based, Macaca mulatta, Hepatocyte; conditions: rhesus monkey
[5] = molecular target: T1, Cytochrome P450 3A4 (Homo sapiens, UniProt P08684); experiment: Time dependent inhibition of CYP3A4 (unknown origin); type: ADME
[6] = tested on: MV4-11; experiment: Antitumor activity against human MV4-11 cells xenografted in iv dosed mouse assessed as reduction in pol II CTD level in tumor measured upto 24 hrs by Western blot analysis; type: functional, organism-based; conditions: dose 5-15 mg/kg
[7] = molecular target: T2, Cytochrome P450 2C19 (Homo sapiens, UniProt P33261); experiment: Time dependent inhibition of CYP2C19 (unknown origin); type: ADME
[8] = Permeability across basolateral to apical side in human Caco-2 cells; type: ADME, cell-based; conditions: read-out: permeability
[9] = Aqueous solubility of compound at pH 4; type: physicochemical
[10] = molecular target: T3, Cytochrome P450 2D6 (Homo sapiens, UniProt P10635); experiment: Time dependent inhibition of CYP2D6 (unknown origin); type: ADME
[11] = Half life in Sprague-Dawley rat at 4 mg/kg, iv; type: ADME, organism-based; conditions: in vivo
[12] = AUC (0 to 24 hrs) in CD-1 mouse at 2 mg/kg, iv; type: ADME, organism-based; conditions: CD-1, mouse, in vivo
[13] = Clearance in Sprague-Dawley rat at 4 mg/kg, iv; type: ADME, organism-based; conditions: in vivo
[14] = tested on: SNU-16; experiment: Antitumor activity against human SNU-16 cells xenografted in iv dosed mouse assessed as tumor growth inhibition; type: functional, organism-based; conditions: dose 5-15 mg/kg
[15] = tested on: MV4-11; experiment: Antitumor activity against human MV4-11 cells xenografted in mouse assessed as reduction in MYC level in tumor at 5 to 15 mg/kg, iv measured upto 24 hrs by Western blot analysis; type: functional, organism-based; conditions: dose 5-15 mg/kg
[16] = molecular target: T4, Cytochrome P450 1A2 (Homo sapiens, UniProt P05177); experiment: Time dependent inhibition of CYP1A2 (unknown origin); type: ADME
T4 sequence (P05177 whole entry): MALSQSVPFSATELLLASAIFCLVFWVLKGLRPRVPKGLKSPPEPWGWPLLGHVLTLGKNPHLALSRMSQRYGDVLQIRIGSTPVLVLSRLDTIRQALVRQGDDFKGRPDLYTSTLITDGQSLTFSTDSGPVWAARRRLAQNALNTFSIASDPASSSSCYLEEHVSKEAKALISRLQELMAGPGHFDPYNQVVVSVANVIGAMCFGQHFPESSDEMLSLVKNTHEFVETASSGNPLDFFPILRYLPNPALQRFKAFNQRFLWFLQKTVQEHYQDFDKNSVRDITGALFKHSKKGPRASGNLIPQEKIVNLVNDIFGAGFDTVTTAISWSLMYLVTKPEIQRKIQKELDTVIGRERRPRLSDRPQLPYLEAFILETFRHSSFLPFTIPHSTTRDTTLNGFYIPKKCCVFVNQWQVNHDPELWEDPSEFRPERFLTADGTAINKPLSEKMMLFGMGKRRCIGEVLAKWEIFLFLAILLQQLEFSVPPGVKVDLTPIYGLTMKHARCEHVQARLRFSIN

[17] = molecular target: T5, Cytochrome P450 2C9 (Homo sapiens, UniProt P11712); experiment: Inhibition of CYP2C9 (unknown origin); type: ADME
[18] = molecular target: Cyclin-dependent kinase 1 (Homo sapiens, UniProt P06493); experiment: Inhibition of CDK1 (unknown origin)
[19] = molecular target: T1, Cytochrome P450 3A4; experiment: Induction of CYP3A4 (unknown origin); type: ADME
[20] = molecular target: T5, Cytochrome P450 2C9; experiment: Time dependent inhibition of CYP2C9 (unknown origin); type: ADME
[21] = Metabolic stability in mouse hepatocytes assessed as half life; type: ADME, cell-based, Hepatocyte
[22] = molecular target: T2, Cytochrome P450 2C19; experiment: Inhibition of CYP2C19 (unknown origin); type: ADME
[23] = molecular target: T6, Cytochrome P450 2B6 (Homo sapiens, UniProt P20813); experiment: Inhibition of CYP2B6 (unknown origin); type: ADME
T6 sequence (P20813 whole entry): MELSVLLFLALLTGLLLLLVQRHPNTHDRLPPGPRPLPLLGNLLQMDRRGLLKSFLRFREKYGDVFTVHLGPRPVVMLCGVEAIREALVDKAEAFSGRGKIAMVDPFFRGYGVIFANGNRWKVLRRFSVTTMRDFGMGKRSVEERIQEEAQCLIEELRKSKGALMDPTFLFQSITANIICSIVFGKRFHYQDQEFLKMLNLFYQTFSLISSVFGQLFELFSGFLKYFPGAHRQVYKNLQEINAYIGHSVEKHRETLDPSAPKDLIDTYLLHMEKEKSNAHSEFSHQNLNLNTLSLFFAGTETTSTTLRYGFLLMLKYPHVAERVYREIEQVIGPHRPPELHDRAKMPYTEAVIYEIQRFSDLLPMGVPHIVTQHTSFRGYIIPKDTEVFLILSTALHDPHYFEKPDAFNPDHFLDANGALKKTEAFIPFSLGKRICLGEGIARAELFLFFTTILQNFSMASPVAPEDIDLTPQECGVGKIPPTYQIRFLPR

[24] = molecular target: Cyclin-dependent kinase 9 (Homo sapiens, UniProt P50750); experiment: Inhibition of CDK9 (unknown origin)
[25] = molecular target: Cyclin-dependent kinase 2 (Homo sapiens, UniProt P24941); experiment: Inhibition of CDK2 (unknown origin)
[26] = Half life in Beagle dog at 1 mg/kg, iv; type: ADME, organism-based, Canis lupus familiaris; conditions: in vivo
[27] = tested on: MV4-11; experiment: Antitumor activity against human MV4-11 cells xenografted in mouse assessed as upregulation of caspase-3 level in tumor at 5 to 15 mg/kg, iv by Western blot analysis; type: functional, organism-based; conditions: dose 5-15 mg/kg, time <= 24.0 hrs
[28] = Metabolic stability in rat hepatocytes assessed as half life; type: ADME, cell-based, Hepatocyte
[29] = molecular target: T7, Cytochrome P450 2C8 (Homo sapiens, UniProt P10632); experiment: Time dependent inhibition of CYP2C8 (unknown origin); type: ADME
T7 sequence (P10632 whole entry): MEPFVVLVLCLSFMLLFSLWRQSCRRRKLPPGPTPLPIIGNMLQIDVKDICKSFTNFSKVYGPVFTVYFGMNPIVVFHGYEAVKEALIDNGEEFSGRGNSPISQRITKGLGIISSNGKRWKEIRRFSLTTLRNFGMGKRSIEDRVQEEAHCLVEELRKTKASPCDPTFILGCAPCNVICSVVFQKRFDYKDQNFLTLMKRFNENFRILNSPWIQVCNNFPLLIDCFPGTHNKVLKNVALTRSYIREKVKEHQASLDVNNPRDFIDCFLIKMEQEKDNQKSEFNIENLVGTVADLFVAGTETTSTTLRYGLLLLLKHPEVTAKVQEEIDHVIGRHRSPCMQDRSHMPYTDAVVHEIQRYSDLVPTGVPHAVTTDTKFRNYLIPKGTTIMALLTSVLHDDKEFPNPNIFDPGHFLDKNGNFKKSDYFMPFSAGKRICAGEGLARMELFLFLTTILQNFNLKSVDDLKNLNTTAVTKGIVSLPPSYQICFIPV

[30] = AUC (0 to 24 hrs) in Sprague-Dawley rat at 4 mg/kg, iv; type: ADME, organism-based; conditions: in vivo
[31] = molecular target: T4, Cytochrome P450 1A2; experiment: Inhibition of CYP1A2 (unknown origin); type: ADME
[32] = Metabolic stability in dog hepatocytes assessed as half life; type: ADME, cell-based, Canis lupus familiaris, Hepatocyte
[33] = Plasma protein binding in human; type: ADME, cell-free; conditions: read-out: PPB (converted)
[34] = tested on: MV4-11; experiment: Antitumor activity against human MV4-11 cells xenografted in mouse assessed as tumor growth inhibition at 10 mg/kg, iv measured upto 28 days; type: functional; conditions: MV4-11, 672 h, time <= 28 day, read-out: TGI
[35] = Metabolic stability in human hepatocytes assessed as half life; type: ADME, cell-based, Hepatocyte
[36] = Clearance in Beagle dog at 1 mg/kg, iv; type: ADME, organism-based, Canis lupus familiaris; conditions: in vivo
[37] = molecular target: Voltage-gated inwardly rectifying potassium channel KCNH2 (Homo sapiens, UniProt Q12809); experiment: Inhibition of hERG upto 30 uM; type: toxicity
[38] = Volume of distribution in Beagle dog at 1 mg/kg, iv; type: ADME, organism-based, Canis lupus familiaris; conditions: in vivo
[39] = molecular target: T3, Cytochrome P450 2D6; experiment: Inhibition of CYP2D6 (unknown origin); type: ADME
[40] = molecular target: T1, Cytochrome P450 3A4; experiment: Inhibition of CYP3A4 (unknown origin); type: ADME
[41] = Permeability across apical to basolateral side in human Caco-2 cells; type: ADME, cell-based; conditions: read-out: permeability
[42] = Volume of distribution in CD-1 mouse at 2 mg/kg, iv; type: ADME, organism-based; conditions: CD-1, mouse, in vivo, read-out: Vd
[43] = Clearance in CD-1 mouse at 2 mg/kg, iv; type: ADME, organism-based; conditions: in vivo
[44] = Efflux ratio of permeability basolateral to apical side over apical to basolateral side in human Caco-2 cells; type: ADME, cell-based
[45] = Volume of distribution in Sprague-Dawley rat at 4 mg/kg, iv; type: ADME, organism-based; conditions: in vivo
[46] = tested on: MV4-11; experiment: Antitumor activity against human MV4-11 cells xenografted in mouse assessed as reduction in Mcl1 level in tumor at 5 to 15 mg/kg, iv measured upto 24 hrs by Western blot analysis; type: functional, organism-based; conditions: dose 5-15 mg/kg
[47] = Toxicity in mouse assessed as change in body weight at 10 mg/kg, iv measured upto 28 days; type: organism-based; conditions: in vivo, 672 h, time < 28 day
[48] = molecular target: T7, Cytochrome P450 2C8; experiment: Inhibition of CYP2C8 (unknown origin); type: ADME
[49] = AUC (0 to 24 hrs) in Beagle dog at 1 mg/kg, iv; type: ADME, organism-based, Canis lupus familiaris; conditions: in vivo
[50] = Half life in CD-1 mouse at 2 mg/kg, iv; type: ADME, organism-based; conditions: CD-1, mouse, in vivo

T1 sequence (P08684 whole entry): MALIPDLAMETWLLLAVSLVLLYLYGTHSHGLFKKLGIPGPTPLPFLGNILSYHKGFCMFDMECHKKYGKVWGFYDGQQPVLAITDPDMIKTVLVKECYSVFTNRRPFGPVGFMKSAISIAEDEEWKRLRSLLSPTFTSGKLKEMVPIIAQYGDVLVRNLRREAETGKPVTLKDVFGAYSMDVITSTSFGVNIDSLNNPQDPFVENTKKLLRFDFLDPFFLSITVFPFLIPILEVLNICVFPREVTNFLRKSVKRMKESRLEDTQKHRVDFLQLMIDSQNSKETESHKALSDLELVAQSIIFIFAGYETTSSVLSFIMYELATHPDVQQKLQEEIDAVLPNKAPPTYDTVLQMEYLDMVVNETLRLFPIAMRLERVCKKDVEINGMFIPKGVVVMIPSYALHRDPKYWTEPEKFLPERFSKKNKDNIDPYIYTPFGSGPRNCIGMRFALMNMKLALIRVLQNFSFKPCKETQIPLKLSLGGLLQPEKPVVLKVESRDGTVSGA
T3 sequence (P10635 whole entry): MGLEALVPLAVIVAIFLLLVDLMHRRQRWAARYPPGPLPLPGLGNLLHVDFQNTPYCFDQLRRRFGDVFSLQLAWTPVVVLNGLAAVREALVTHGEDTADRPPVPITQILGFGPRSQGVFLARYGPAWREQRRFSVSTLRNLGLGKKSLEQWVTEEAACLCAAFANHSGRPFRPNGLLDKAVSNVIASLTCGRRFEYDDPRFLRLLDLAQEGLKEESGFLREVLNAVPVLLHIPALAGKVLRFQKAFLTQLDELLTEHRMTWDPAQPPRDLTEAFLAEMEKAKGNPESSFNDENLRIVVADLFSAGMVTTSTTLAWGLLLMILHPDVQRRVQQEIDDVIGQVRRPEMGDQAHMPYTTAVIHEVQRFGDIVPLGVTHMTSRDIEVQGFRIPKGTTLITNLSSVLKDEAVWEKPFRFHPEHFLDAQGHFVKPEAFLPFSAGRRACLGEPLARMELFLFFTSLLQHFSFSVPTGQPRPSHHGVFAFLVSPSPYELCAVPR
T2 sequence (P33261 whole entry): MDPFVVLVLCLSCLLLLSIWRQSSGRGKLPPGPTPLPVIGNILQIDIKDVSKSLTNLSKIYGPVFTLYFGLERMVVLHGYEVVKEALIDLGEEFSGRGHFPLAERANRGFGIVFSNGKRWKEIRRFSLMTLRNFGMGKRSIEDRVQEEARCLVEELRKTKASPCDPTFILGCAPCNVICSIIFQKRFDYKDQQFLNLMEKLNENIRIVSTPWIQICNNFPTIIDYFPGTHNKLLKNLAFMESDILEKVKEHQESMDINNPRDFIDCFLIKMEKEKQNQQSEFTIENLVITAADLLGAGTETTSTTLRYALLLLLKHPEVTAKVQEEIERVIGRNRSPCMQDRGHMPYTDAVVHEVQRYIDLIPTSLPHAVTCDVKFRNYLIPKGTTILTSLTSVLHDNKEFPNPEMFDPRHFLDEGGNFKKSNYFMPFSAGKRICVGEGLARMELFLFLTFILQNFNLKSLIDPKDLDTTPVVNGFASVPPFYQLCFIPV
T5 sequence (P11712 whole entry): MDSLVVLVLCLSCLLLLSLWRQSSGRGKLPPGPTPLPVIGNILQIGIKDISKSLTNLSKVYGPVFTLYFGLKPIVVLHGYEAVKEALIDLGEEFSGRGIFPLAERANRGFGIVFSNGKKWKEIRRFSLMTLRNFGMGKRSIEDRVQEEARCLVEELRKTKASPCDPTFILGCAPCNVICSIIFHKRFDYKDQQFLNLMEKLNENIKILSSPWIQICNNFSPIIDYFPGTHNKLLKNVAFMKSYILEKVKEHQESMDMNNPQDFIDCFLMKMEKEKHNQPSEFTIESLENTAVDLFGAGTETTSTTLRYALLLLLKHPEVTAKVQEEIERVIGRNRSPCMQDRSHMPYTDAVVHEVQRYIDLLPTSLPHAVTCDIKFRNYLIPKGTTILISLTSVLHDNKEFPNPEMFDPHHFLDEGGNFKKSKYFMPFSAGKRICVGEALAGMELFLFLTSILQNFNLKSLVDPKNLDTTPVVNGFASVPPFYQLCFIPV
Sequence of Voltage-gated inwardly rectifying potassium channel KCNH2 (Q12809 whole entry): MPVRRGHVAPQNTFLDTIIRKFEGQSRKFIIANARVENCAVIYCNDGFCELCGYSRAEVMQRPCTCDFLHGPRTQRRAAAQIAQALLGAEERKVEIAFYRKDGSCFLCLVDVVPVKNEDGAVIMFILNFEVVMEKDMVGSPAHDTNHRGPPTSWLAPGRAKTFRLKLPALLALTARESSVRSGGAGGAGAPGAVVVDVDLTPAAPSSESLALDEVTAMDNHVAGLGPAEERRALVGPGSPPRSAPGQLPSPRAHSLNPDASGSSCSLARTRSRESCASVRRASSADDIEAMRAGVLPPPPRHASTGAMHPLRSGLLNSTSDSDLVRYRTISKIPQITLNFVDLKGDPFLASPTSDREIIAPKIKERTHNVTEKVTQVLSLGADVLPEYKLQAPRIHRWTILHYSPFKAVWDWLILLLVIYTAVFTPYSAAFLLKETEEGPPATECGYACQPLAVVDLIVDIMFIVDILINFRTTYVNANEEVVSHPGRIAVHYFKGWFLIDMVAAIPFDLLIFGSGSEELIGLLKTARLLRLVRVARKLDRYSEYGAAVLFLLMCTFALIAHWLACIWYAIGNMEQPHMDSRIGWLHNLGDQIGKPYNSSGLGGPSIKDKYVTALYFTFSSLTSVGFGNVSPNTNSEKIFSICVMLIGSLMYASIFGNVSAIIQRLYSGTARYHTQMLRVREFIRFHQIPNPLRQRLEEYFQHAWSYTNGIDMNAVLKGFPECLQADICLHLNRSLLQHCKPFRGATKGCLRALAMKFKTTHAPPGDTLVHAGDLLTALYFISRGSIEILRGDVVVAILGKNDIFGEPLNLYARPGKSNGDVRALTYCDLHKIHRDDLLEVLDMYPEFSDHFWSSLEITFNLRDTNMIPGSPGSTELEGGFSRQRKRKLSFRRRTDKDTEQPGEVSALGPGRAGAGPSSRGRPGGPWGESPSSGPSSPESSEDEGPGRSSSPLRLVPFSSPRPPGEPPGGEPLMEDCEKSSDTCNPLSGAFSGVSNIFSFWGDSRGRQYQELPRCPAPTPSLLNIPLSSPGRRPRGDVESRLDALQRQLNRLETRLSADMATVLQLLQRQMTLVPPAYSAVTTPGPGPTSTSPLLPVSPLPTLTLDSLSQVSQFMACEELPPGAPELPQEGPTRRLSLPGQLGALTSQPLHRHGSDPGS
Sequence of Cyclin-dependent kinase 1 (P06493 whole entry): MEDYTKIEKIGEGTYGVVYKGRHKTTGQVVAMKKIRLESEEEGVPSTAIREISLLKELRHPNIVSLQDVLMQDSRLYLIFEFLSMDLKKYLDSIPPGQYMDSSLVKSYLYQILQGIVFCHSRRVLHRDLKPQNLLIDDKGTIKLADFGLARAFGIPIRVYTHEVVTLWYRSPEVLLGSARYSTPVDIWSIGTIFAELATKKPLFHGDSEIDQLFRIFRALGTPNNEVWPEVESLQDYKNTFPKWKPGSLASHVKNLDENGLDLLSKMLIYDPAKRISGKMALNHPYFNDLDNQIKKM
Sequence of Cyclin-dependent kinase 9 (P50750 whole entry): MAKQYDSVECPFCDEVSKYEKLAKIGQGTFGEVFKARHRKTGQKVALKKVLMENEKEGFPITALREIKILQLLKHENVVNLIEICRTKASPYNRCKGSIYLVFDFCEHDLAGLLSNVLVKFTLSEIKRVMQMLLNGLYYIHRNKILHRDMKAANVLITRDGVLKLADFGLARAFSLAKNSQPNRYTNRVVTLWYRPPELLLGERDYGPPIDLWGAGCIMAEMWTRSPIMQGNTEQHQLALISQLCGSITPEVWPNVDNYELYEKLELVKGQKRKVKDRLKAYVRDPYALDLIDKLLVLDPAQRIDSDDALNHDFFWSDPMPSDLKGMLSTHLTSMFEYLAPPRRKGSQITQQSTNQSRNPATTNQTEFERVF

## Clc1cnc2[nH]c(C3CCNCC3)nc2c1-c1cnn(CC2CC2)c1
[1]
  Ratio IC50: 35.5
[2]
  IC50: 464 nM

## Cn1cc(-c2c(Cl)cnc3[nH]c(C4CCNCC4)cc23)cn1
[3]
  Ratio IC50: 72.5
[4]
  half-life: 4.4 h
[5]
  TDI: Not_active
[1]
  Ratio IC50: 45.2
[6]
  Activity: Dose-dependent-effect
[2]
  IC50: 53.4 nM
[7]
  TDI: Not_active
[8]
  Papp B→A: 13.9 ×10⁻⁶ cm/s
[9]
  solubility: 1500 µg/mL (≈ 4.75 mM)
[10]
  TDI: Not_active
[11]
  half-life: 3.2 h
[12]
  AUC(0-t): 0.916 µM·h
[13]
  clearance: 52 mL/min/kg
[14]
  TGI: Dose-dependent-effect; Partial Response Is Observed In 2/8 Mouse At 5 Mg/Kg Group, Partial Response Observed In 6/8 Mouse At 10 Mg/Kg And Partial Response Is Observed In 7/8 Mouse At 15 Mg/Kg Dose Group.
[15]
  Activity: Active
[16]
  TDI: Not_active
[17]
  IC50: > 100000 nM
[18]
  IC50: 428 nM
[19]
  Activity: Not_active
[20]
  TDI: Not_active
[21]
  half-life: 1.35 h
[22]
  IC50: 96200 nM
[23]
  IC50: > 100000 nM
[24]
  IC50: 5.9 nM
[25]
  IC50: 267 nM
[26]
  half-life: 3.96 h
[27]
  Activity: Time-dependent-effect
[28]
  half-life: 3.71 h
[29]
  TDI: Not_active
[30]
  AUC(0-t): 1250 ng·h/mL
[31]
  IC50: 44700 nM
[32]
  half-life: > 4.66 h
[33]
  fraction unbound: 0.711
[34]
  inhibition in vivo at 10 mg/kg: 80%
[35]
  half-life: > 4.66 h
[36]
  clearance: 29.1 mL/min/kg
[37]
  inhibition (INH): Not_active
[38]
  Vd: 7.62 L/kg
[39]
  IC50: > 100000 nM
[40]
  IC50: > 100000 nM
[41]
  Papp A→B: 0.82 ×10⁻⁶ cm/s
[42]
  Vd: 10.2 L/kg
[43]
  clearance: 115 mL/min/kg
[44]
  efflux ratio: 17
[45]
  Vd: 11.2 L/kg
[46]
  Activity: Active
[47]
  Activity: Non-toxic
[48]
  IC50: > 100000 nM
[49]
  AUC(0-t): 568 ng·h/mL
[50]
  half-life: 1.47 h
